What was measured:
Type in all cases: functional
Rattus norvegicus [1] = experiment: Cartilage space narrowing was measured radiographically after 42 days initial immunization with type II collagen in rats at a dose of 200 mg/kg
Rattus norvegicus [2] = experiment: Erosions of tarsal bones measured radiographically after 42 days initial immunization with type II collagen in rats at a dose of 200 mg/kg
Rattus norvegicus [3] = experiment: Paw diameter measured with a micrometer caliper after 42 days initial immunization with type II collagen in rats at a dose of 200 mg/kg

SMILES	Cartilage space (Rattus norvegicus [1])	Erosions (Rattus norvegicus [2])	Mean paw diameter (Rattus norvegicus [3]) [mm]
C[C@]12C=CC(=O)C=C1CCC1[C@@H]2[C@@H](O)C[C@@]2(C)[C@H]1CC[C@]2(O)C(=O)CO (single isomer, unassigned) [PREDNISOLONE]	3.27	3.5	7.92
COc1ccc2c(c1)c(CC(=O)O)c(C)n2C(=O)c1ccc(Cl)cc1 [INDOMETHACIN]	2.94	2.94	8
CCCCC1C(=O)N(c2ccccc2)N(c2ccccc2)C1=O [PHENYLBUTAZONE]	2.86	3.33	8.42
CC(C)(S)[C@@H](N)C(=O)O [PENICILLAMINE]	2.72	2.83	8.89

— ChEMBL document CHEMBL1127288, “Derivatives of D-penicillamine as potential antiarthritic agents” (1994)
